# Test results from US11639506B2, “Recombinant yeast having increased tolerance to ionic liquids and methods of use” (Wisconsin Alumni Research Foundation, priority 2015, dated 2023).
# “And” between values parts separate entries of the source, which are not always exact repeats. Equal values may be shown once.
# Experiments:
# Y133 ptk2Δ [1] = type: cell-based, S. cerevisiae
# From the text: We deleted PTK2 in our xylose fermenting yeast GLBRCY133 (Parreiras et al.,2014).
# Y133 ptk2Δ [2] = type: cell-based, S. cerevisiae; conditions: relative to Y133, p<0.01
# Procedure: Compounds, initial screening, and IC50 determination: Compounds tested were purchased from Sigma-Aldrich. […] Plates were read on a TECAN M1000 over a 48 hour growth period. […] When presented, IC50 values for growth inhibition were calculated from triplicate 8 point dose curves and SigmaPlot 12.0. When presented, error bars are mean±standard error (S.E.) of at least 3 replicates.
# [3] = tested on: xylose fermenting yeast GLBRCY133; assay: Growth inhibition IC50, xylose fermenting yeast Y133; type: cell-based, S. cerevisiae; conditions: Y133 and Y133 ptk2Δ
# [4] = tested on: PTK2 deletion mutant in a lab strain background; assay: Growth inhibition IC50, PTK2 deletion mutant in lab strain; type: cell-based, S. cerevisiae; conditions: deletion mutant of PTK2 in the lab strain
# Procedure: Compounds, initial screening, and IC50 determination: Compounds tested were purchased from Sigma-Aldrich. Cells of S. cerevisiae (MATαpdr1Δ::natMXpdr3Δ::KI.URA3 snq2Δ::KI.LEU2 can1Δ::STE2pr-Sp_his5 lyp1Δhis3Δ1 leu2Δ0 ura3Δ0 met15Δ0), referred to as control strain, were grown in 200 μl cultures at 30° C. in YPD, with a drug or DMSO control. Plates were read on a TECAN M1000 over a 48 hour growth period. The specific growth rate was calculated using GCAT analysis software (available at cat3-pub.glbrc.org on the World Wide Web) (Sato et al., 2013). When presented, IC50 values for growth inhibition were calculated from triplicate 8 point dose curves and SigmaPlot 12.0. When presented, error bars are mean±standard error (S.E.) of at least 3 replicates.
# yeast mitochondria = assay: SYTO 16 staining of active mitochondria (microscopy); type: cell-based; conditions: SYTO 16 stain
# From the text: We determined that ionic liquids were more toxic to cells grown on glycerol compared to glucose (FIG. 3A). Using microscopy, we explored the effect of ionic liquids on mitochondria. […] Untreated cells had normal mitochondrial morphology, and at higher doses, mitochondria structures in cells disappeared indicating a loss of functional mitochondria. Finally, we used FACS analysis with the stain 3,3-Dioctadecyloxacarbocyanine perchlorate (“DiO”), which has differential fluorescence depending on mitochondrial membrane potential. In the presence of ionic liquids, we observed a fluorescence shift of DiO, indicating reduced mitochondrial membrane potential (FIGS. 3C-D). Valinomycin was used as a positive control. Hydroxyurea and benomyl were included as negative control agents that causes cell death through a mechanism unrelated to the mitochondria.
# [5] = tested on: S. cerevisiae deletion mutants; assay: Chemical genomic profiling of pooled deletion mutants; type: cell-based
# Procedure: FIGS. 1A-B depict chemical genomic profiling of ionic liquids. A genome-wide set of deletion mutants were challenged with a specific compound and grown as a pool for several generations.
# (§1) Chemical genomic analysis: Chemical genomic analysis of poacic acid was performed as described as described previously (Fung et al., 2013; Parsons et al., 2006). The tested yeast deletion collection had 4000 strains using the genetic background described in Andrusiak (2012). The optimal inhibitory concentration of poacic acid for chemical genomic profiling (70-80% growth versus solvent control in YP-galactose media after 24 hours of growth) was determined using an 8 point dose curve. A concentration of 88 μg/ml inhibited growth within this range. 200 μl cultures of the pooled, deletion collection of S. cerevisiae deletion mutants were grown with 88 μg/ml poacic acid or a DMSO control in triplicate for 48 hours at 30° C. Genomic DNA was extracted using the Epicentre MasterPure™ Yeast DNA purification kit. Mutant-specific molecular barcodes were amplified with specially designed multiplex primers (Smith et al., 2009). The barcodes were sequenced using an Illumina MiSeq. Three replicates of each condition (poacic acid vs. DMSO) were sequenced. One DMSO control was lost due to poor sequencing reads. The barcode counts for each yeast deletion mutant in the presence of poacic acid were normalized against the DMSO control conditions to define sensitivity or resistance of individual strains. To determine a p-value for each top sensitive and resistant mutant, we used the EdgeR package (Robinson et al., 2014, 2010). A Bonferroni-corrected hypergeometric distribution test was used to search for significant enrichment of GO terms among the top 10 sensitive and resistant deletion mutants (Boyle et al., 2004). To understand the pathways that were most affected by poacic acid we developed a protein complex/pathway score based on the summation of the z-scores for each complex/pathway (Pathway z-score). Correlation of the chemical genomic profile of poacic acid with the yeast genetic interaction network to was done as described in Costanzo et al. (2010).
# [6] = tested on: S. cerevisiae deletion mutants; assay: as above; type: cell-based; conditions: listed as EMIM-CI
# [7] = tested on: yeast overexpressing PMA1 or PTK2; assay: Tolerance of PMA1 / PTK2 overexpression strains; type: cell-based
# S. cerevisiae = assay: Dose curve for chemical genomic profiling concentration; type: cell-based; conditions: 88 μg/ml, YP-galactose media, 24 hours
# Procedure: as §1, with “To determine a p-value for each top sensitive and resistant mutant, we used the EdgeR package (Robinson et al., 2014, 2010). A Bonferroni-corrected hypergeometric distribution test was used to search for significant enrichment of GO terms among the top 10 sensitive and resistant deletion mutants (Boyle et al., 2004). To understand the pathways that were most affected by poacic acid we developed a protein complex/pathway score based on the summation of the z-scores for each complex/pathway (Pathway z-score). Correlation of the chemical genomic profile of poacic acid with the yeast genetic interaction network to was done as described in Costanzo et al. (2010).” left out
compound,measurement,setting,value
"CCCCn1cc[n+](C)c1.[Cl-] [BMIM-Cl, 1-butyl-3-methylimidazolium chloride]",tolerance and fermentative capacity of PTK2 deletion,"Y133 ptk2Δ [1]; 1% BMIM-Cl, aerobic and anaerobic conditions",greater tolerance and has greater fermentative capacity
same,tolerance conferred by deletion of PTK2 in Y133,Y133 ptk2Δ [2],significantly greater tolerance
"CC(=O)[O-].CCn1cc[n+](C)c1 [EMIM-Ac, 1-ethyl-3-methylimidazolium acetate]",tolerance conferred by deletion of PTK2 in Y133,Y133 ptk2Δ [2],significantly greater tolerance
"CCn1cc[n+](C)c1.[Cl-] [EMIM-Cl, 1-ethyl-3-methylimidazolium chloride]",effects on growth at pH 6.5 versus pH 5.0,[3],much greater
same,resistant to concentration,[4],over 5%
same,effect on staining of active mitochondria,yeast mitochondria,dose-dependent effect
same,Fold Change,[5]; APM3 deletion mutant,0.5222
same,Fold Change,"[5]; ARG2 deletion mutant, listed as EMIM-CI",0.1706
same,Fold Change,[5]; ARX1 deletion mutant,1.688
same,Fold Change,[5]; AVT3 deletion mutant,1.575
same,Fold Change,[5]; AVT5 deletion mutant,1.933
same,Fold Change,[5]; BAP2 deletion mutant,1.689
same,Fold Change,[5]; BNI4 deletion mutant,1.665
same,Fold Change,[5]; BUD8 deletion mutant,0.6034
same,Fold Change,[5]; CAT5 deletion mutant,0.4405
same,Fold Change,[5]; CTF4 deletion mutant,2.67
same,Fold Change,[5]; DAN1 deletion mutant,0.5786
same,Fold Change,[5]; DBF2 deletion mutant,1.927
same,Fold Change,[5]; DBP3 deletion mutant,1.709
same,Fold Change,[5]; DEP1 deletion mutant,2.106
same,Fold Change,[5]; DIA2 deletion mutant,2.886
same,Fold Change,[5]; DOA1 deletion mutant,1.661
same,Fold Change,[5]; DPB3 deletion mutant,1.946
same,Fold Change,[5]; ERF2 deletion mutant,1.477
same,Fold Change,[5]; GAL1 deletion mutant,0.1962
same,Fold Change,"[5]; GAL1 deletion mutant, listed as EMIM-CI",0.1962
same,Fold Change,[5]; GRX2 deletion mutant,0.3394
same,Fold Change,[5]; HIR2 deletion mutant,0.4587
same,Fold Change,[5]; HMI1 deletion mutant,0.1939
same,Fold Change,[5]; IRA2 deletion mutant,0.4076
same,Fold Change,[5]; IST3 deletion mutant,1.899
same,Fold Change,[5]; LIA1 deletion mutant,1.621
same,Fold Change,[5]; LYS2 deletion mutant,0.4622
same,Fold Change,[5]; LYS5 deletion mutant,0.1821
same,Fold Change,[5]; LYS14 deletion mutant,0.3984
same,Fold Change,[5]; MCT1 deletion mutant,0.1576
same,Fold Change,[5]; MEI4 deletion mutant,1.592
same,Fold Change,[5]; MF(ALPHA)2 deletion mutant,0.6154
same,Fold Change,[5]; NMD2 deletion mutant,1.614
same,Fold Change,[5]; OLA1 deletion mutant,1.645
same,Fold Change,[5]; PEX32 deletion mutant,2.103
same,Fold Change,[5]; PMT1 deletion mutant,1.712
same,Fold Change,[5]; PPM1 deletion mutant,0.3444
same,Fold Change,[5]; PTK2 deletion mutant,12
same,Fold Change,[5]; PUF4 deletion mutant,0.1863
same,Fold Change,"[5]; PUF4 deletion mutant, listed as EMIM-CI",0.1863
same,Fold Change,[5]; PUF6 deletion mutant,1.748
same,Fold Change,"[5]; QCR2 deletion mutant, listed as EMIM-CI",0.195
same,Fold Change,[5]; RCR1 deletion mutant,0.4508
same,Fold Change,[5]; REI1 deletion mutant,2.168
same,Fold Change,[5]; RHO2 deletion mutant,1.785
same,Fold Change,"[5]; RIM1 deletion mutant, listed as EMIM-CI",0.1974
same,Fold Change,[5]; RNP1 deletion mutant,1.495
same,Fold Change,[5]; ROM2 deletion mutant,2.198
same,Fold Change,[5]; RPL11B deletion mutant,1.725
same,Fold Change,[5]; RPL19A deletion mutant,1.875
same,Fold Change,[5]; RPL19B deletion mutant,1.56
same,Fold Change,[5]; RPL24B deletion mutant,2.086
same,Fold Change,[5]; RPS10A deletion mutant,2.351
same,Fold Change,[5]; RPS18B deletion mutant,1.743
same,Fold Change,[5]; RPS28B deletion mutant,2.088
same,Fold Change,[5]; RRI1 deletion mutant,0.6151
same,Fold Change,[5]; SAP155 deletion mutant,1.704
same,Fold Change,[5]; SAP185 deletion mutant,0.649
same,Fold Change,[5]; SAY1 deletion mutant,1.592
same,Fold Change,[5]; SHE9 deletion mutant,0.2014
same,Fold Change,[5]; SIN3 deletion mutant,2.02
same,Fold Change,[5]; SKY1 deletion mutant,4.5 and 4.547
same,Fold Change,[5]; SPS4 deletion mutant,0.5658
same,Fold Change,[5]; SSK2 deletion mutant,1.579
same,Fold Change,[5]; SUR4 deletion mutant,2.535
same,Fold Change,[5]; SVL3 deletion mutant,0.3847
same,Fold Change,[5]; SWI6 deletion mutant,1.902
same,Fold Change,[5]; TOP1 deletion mutant,1.759
same,Fold Change,[5]; TRP2 deletion mutant,1.685
same,Fold Change,[5]; TSR2 deletion mutant,1.94
same,Fold Change,[5]; TYE7 deletion mutant,0.4859
same,Fold Change,[5]; UBC4 deletion mutant,1.541
same,Fold Change,[5]; UBP14 deletion mutant,1.534
same,Fold Change,[5]; UPF3 deletion mutant,1.61
same,Fold Change,[5]; VPS38 deletion mutant,1.666
same,Fold Change,[5]; YBR090C deletion mutant,0.5882
same,Fold Change,[5]; YDL118W deletion mutant,1.522
same,Fold Change,[5]; YDL172C deletion mutant,1.636
same,Fold Change,[5]; YGR237C deletion mutant,0.5496
same,Fold Change,[5]; YHB1 deletion mutant,0.5611
same,Fold Change,[5]; YIH1 deletion mutant,1.762
same,Fold Change,[5]; YIL141W deletion mutant,1.524
same,Fold Change,[5]; YIR044C deletion mutant,0.5723
same,Fold Change,[5]; YLR194C deletion mutant,0.5909
same,Fold Change,[5]; YLR279W deletion mutant,0.5779
same,Fold Change,[5]; YLR434C deletion mutant,1.5
same,Fold Change,[5]; YMR193C-A deletion mutant,1.867
same,Fold Change,[5]; YOL162W deletion mutant,0.5537
same,Fold Change,[5]; YPL205C deletion mutant,1.523
same,Fold Change,[5]; YPR130C deletion mutant,0.5263
same,Fold Change,[5]; YPS7 deletion mutant,1.508
same,Fold Change,[5]; YPT7 deletion mutant,0.1584
same,Fold Change,"[5]; YPT7 deletion mutant, listed as EMIM-CI",0.1584
same,Fold Change,[5]; YSP2 deletion mutant,1.618
same,Fold Change,[5]; ZDS1 deletion mutant,0.6026
same,Fold Change,[6]; HMI1 deletion mutant,0.1939
same,Fold Change,[6]; LYS5 deletion mutant,0.1821
same,Fold Change,[6]; MCT1 deletion mutant,0.1576
same,Fold Change,[6]; SHE9 deletion mutant,0.2014
same,sugar conversion (glucose and xylose) and ethanol production of PTK2 mutant,"Y133 ptk2Δ [1]; in the presence of 1% EMIM-Cl, versus Y133",significantly improved
same,EMIM-Cl tolerance on increased expression of PMA1,"[7]; PMA1 overexpression, p<0.01",significant decrease
same,EMIM-Cl tolerance on overexpression of PTK2,[7]; PTK2 overexpression,"reduced EMIM-Cl tolerance, but not significantly"
same,tolerance conferred by deletion of PTK2 in Y133,Y133 ptk2Δ [2],significantly greater tolerance
poacic acid,growth versus solvent control,S. cerevisiae,70-80%
